Common to all, as to assay: cells
One test deals with HL-60 cells. The following applies: Homo sapiens, HL-60, 72 h, read-out: Relative cell viability compared to control.
The subject of test [1] is patient-derived primary AML cells HD-23. The following applies: 72 h, read-out: Relative cell viability compared to control.
For another test, the system named is Nomo-1 cells. The following applies: Homo sapiens, NOMO-1, 72 h, read-out: Relative cell viability compared to control.

What is called viability is the share of living cells, or the viability signal relative to a control.

With `O=C(Cc1cccc(OC(F)(F)F)c1)Nc1ccc(CCCCc2nnc(NC(=O)Cc3ccccn3)s2)nn1` [CB-839], the viability at 0.5 µM in the test on HL-60 cells came out at 95.1%; with Nomo-1 cells, 96.1%. In addition, the viability at 1 µM in the test on HL-60 cells turned out to be 92.1%; in test [1] it was 84.6%; in the test on Nomo-1 cells, 98.1%.
On to `C#CCC(N)C(=O)O` (stereo not shown) [PPG, 2-aminopent-4-ynoic acid], for which, in the test with HL-60 cells, the viability at 250 µM amounted to 98.7%, the viability at 500 µM was 98.9% and the viability at 1000 µM was 97.9%. Moreover, the viability at 2000 µM in test [1] was 92.9%. In the test on Nomo-1 cells, the viability at 250 µM came to 97.9%, the viability at 500 µM worked out at 96.6% and the viability at 1000 µM was 95.2%.
With `Nc1ncn([C@@H]2O[C@H](CO)[C@@H](O)[C@H]2O)c(=O)n1` [Azacytidine, 4-Amino-1-β-D-ribofuranosyl-1,3,5-(1H)triazin-2-one], the viability at 1.5 µM in the test on Nomo-1 cells stood at 67.1%.
On to `CC1(C)CCC(CN2CCN(c3ccc(C(=O)NS(=O)(=O)c4ccc(NCC5CCOCC5)c([N+](=O)[O-])c4)c(Oc4cnc5[nH]ccc5c4)c3)CC2)=C(c2ccc(Cl)cc2)C1` [Venetoclax, 4-[4-[[2-(4-Chlorophenyl)-4,4-dimethyl-1-cyclohexen-1-yl]methyl]-1-piperazinyl]-N-[[3-nitro-4-[[(tetrahydro-2H-pyran-4-yl)methyl]amino]phenyl]sulfonyl]-2-(1H-pyrrolo[2,3-b]pyridin-5-yloxy)benzamide], for which, in the test on Nomo-1 cells, the viability at 0.015625 µM stood at 93.8%, the viability at 0.03125 µM was determined as 90.4%, the viability at 0.0625 µM was 85.4% and the viability at 0.125 µM is 79.8%. In the test on Nomo-1 cells, the viability at 0.5 µM was 63.6% and the viability at 1 µM was determined as 55.3%.

For the origin of these results see patent US20250161351A1 (priority 2022, published 2025).
